Results from patent US11497942B2, “Cosmetic or dermatological preparation comprising a combination of a dye and an anti-inflammatory active ingredient” (BEIERSDORF AG, priority 2003, dated 2022).

What was measured:
[1] = Polarity of lipids and oils: interfacial tension towards water; assay type: physicochemical
Text: It has already been proposed to adopt interfacial tension towards water as a measure of the polarity index of an oil or of an oil phase. This means that the greater the polarity of the oil phase in question, the lower the interfacial tension between this oil phase and water. According to the invention, the interfacial tension is regarded as being one possible measure of the polarity of a given oil component.

[2] = cited from earlier work

Molecule	Polarity ([1]; mid-polar lipids)	further results
CCCCCCCC(=O)OC(=O)OC(=O)CCCCCCC [Cetiol CC, Dicaprylyl Carbonate]		Polarity ([1]; nonpolar lipids): 31.7 mN/m
C=CC(C)(C)c1cc(/C=C/C(=O)c2ccc(O)cc2)c(OC)cc1O [licochalcone A]		solubility [2]: sparingly soluble
Cyclomethicone [DC Fluid 345]	28.5 mN/m	Polarity ([1]; silicone oils): 28.5 mN/m
Cyclopolydimethylsiloxan [Dow Corning Fluid 244]	28.5 mN/m	
Phenyltrimethicone [Silicone oil VP 1120]	22.7 mN/m	
